Data from US7799829B2, “Acyloxyalkyl carbamate prodrugs of α-amino acids, methods of synthesis and use” (XenoPort, Inc., priority 2006, dated 2010).

What was measured:
[1] = Bioavailability of α-amino acid following intracolonic administration of prodrugs in rats (intravenous α-amino acid as reference); type: in vivo; conditions: for colonic bioavailability of 1-aminocyclopropanecarboxylic acid: intracolonic administration of prodrug, 1-aminocyclopropanecarboxylic acid released post absorption
Experimental: Rats are obtained commercially and were pre-cannulated in the both the ascending colon and the jugular vein. Animals were conscious at the time of the experiment. All animals were fasted overnight and until 4 hours after dosing of an α-amino acid prodrug. An α-amino acid or the corresponding prodrug was administered as a solution (in water) directly into the colon via the cannula at a dose equivalent to about 75 mg or other appropriate dose of an α-amino acid per kg body weight. Blood samples (0.3 mL) were obtained from the jugular cannula at intervals over 8 hours and were quenched immediately by addition of sodium metabisulfite to prevent oxidation of the α-amino acid. Blood was then further quenched with methanol/perchloric acid to prevent hydrolysis of the prodrug. Blood samples were analyzed as described.
300 μL of methanol was added to 1.5 mL tubes. Rat or monkey blood (100 μL) was collected at different times into the tubes and vortexed to mix. 90 μL of blood was quenched with 300 μL methanol. 10 μL of a standard stock solution containing an α-amino acid (0.04, 0.2, 1, 5, 25, and 100 μg/mL) and 20 μL of p-chlorophenylalanine eas added to 90 μL of blood to make up a final calibration standard (0.004, 0.02, 0.1, 0.5, 2.5, and 10 μg/mL). Samples were vortexed and centrifuged at 3400 rpm for 20 min. The supernatant was analyzed by LC/MS/MS.
An API 4000 LC/MS/MS spectrometer equipped with Agilent 1100 binary pumps and a CTC HTS-PAL autosampler and an Agilent Zorbax Eclipse XBD-C8, 4.6×150 mm, 3.5 μM column was used for the analysis. The mobile phase was 0.02% heptafluorobutyric acid in water (A) and 0.02% heptafluorobutyric acid in acetonitrile (B). The flow rate was 1.0 mL/min. The gradient condition was: 5% B for 2 min, then to 10% B for 1 min. Then the mobile phase was returned to 5% B for 1.1 min. A TurboIonSpray source was used in the API 4000. The analysis was done in either negative ion mode or positive ion mode as appropriate and the MRM transition for each analyte was optimized using a standard solution. 20 μL of the samples were injected. Non-compartmental analysis was performed using WinNonlin software (v.3.1 Professional Version, Pharsight Corporation, Mountain View, Calif.) on individual animal profiles. Summary statistics on major parameter estimates was performed for Cmax (peak observed concentration following dosing), Tmax (time to maximum concentration is the time at which the peak concentration was observed), AUC(0-t) (area under the plasma concentration-time curve from time zero to last collection time, estimated using the log-linear trapezoidal method), AUC(0-∞), (area under the plasma concentration time curve from time zero to infinity, estimated using the log-linear trapezoidal method to the last collection time with extrapolation to infinity), and t1/2,z (terminal half-life).
The oral or intracolonic bioavailability (F) of an α-amino acid was determined by comparing the area under the α-amino acid concentration vs. time curve (AUC) following oral or intracolonic administration of α-amino acid or prodrug thereof with the AUC of the α-amino acid concentration vs. time curve following intravenous administration of the α-amino acid on a dose normalized basis (e.g., % Fic=AUC (following intracolonic administration of an α-amino acid prodrug)/AUC (following intravenous administration of an equivalent dose of the corresponding α-amino acid)). […] In monkeys, following, colonic administration of α-amino acid prodrug 2, the bioavailability of 1-aminocyclopropanecarboxylic acid was determined to be about 4-fold greater than after colonic administration of 1-aminocyclopropanecarboxylic acid itself (at 20 mg-eq/kg).

Compound	melting point [°C]	colonic bioavailability of 1-aminocyclopropanecarboxylic acid [1]	AUC(0-inf) ([1]; rat, whole blood, intravenous, dosed at 20 mg-eq/kg, used as reference for bioavailability calculations, read-out: AUCinf for the intravenously administered α-amino acid) [ng·h/mL]
CCCCCCC(=O)OCCOC(=O)NC1(C(=O)O)CC1 [Compound 13, 1-[(Heptanoyloxyethoxy)carbonylamino]cyclopropanecarboxylic Acid]	112.6 to 113.2		
O=C(NC1(C(=O)O)CC1)OCCOC(=O)c1ccccc1 [Compound 4, 1-[(Phenylcarbonyloxyethoxy)carbonylamino]cyclopropanecarboxylic Acid]	173.8 to 175.8	substantial	
CCCC(=O)OC(C)OC(=O)NC1(C(=O)O)CC1 (stereo not drawn) [Compound 7, 1-(1-Butyryloxy-ethoxycarbonylamino)-cyclopropanecarboxylic Acid]	90.4 to 93.4		
CC(OC(=O)NC1(C(=O)O)CC1)OC(=O)C(C)C (stereo not drawn) [Compound 1, 1-(1-Isobutyryloxy-ethoxycarbonylamino)-cyclopropanecarboxylic Acid]	127 to 129.5		
CC(C)CC(=O)OC(C)OC(=O)NC1(C(=O)O)CC1 (stereo not drawn) [Compound 5, 1-[1-(3-Methyl-butyryloxy)-ethoxycarbonylamino]-cyclopropanecarboxylic Acid]	116.6 to 119.1		
CCCCC(=O)OC(C)OC(=O)NC1(C(=O)O)CC1 (stereo not drawn) [Compound 8, 1-(1-Pentanoyloxy-ethoxycarbonylamino)-cyclopropanecarboxylic Acid]	148 to 151.1		
CC(C)C(=O)OC(OC(=O)NC1(C(=O)O)CC1)C(C)C (stereo not drawn) [Compound 2, 1-(1-Isobutyryloxy-2-methyl-propoxycarbonylamino)-cyclopropanecarboxylic Acid]	127.4 to 129	substantial	
CC(C)C(OC(=O)NC1(C(=O)O)CC1)OC(=O)C1CCCCC1 (stereo not drawn) [Compound 11, 1-[(1-Cyclohexylcarbonyloxy-2-methylpropoxy)carbonylamino]cyclopropanecarboxylic Acid]	156 to 158.5	substantial	
CC(C)C(OC(=O)NC1(C(=O)O)CC1)OC(=O)c1ccccc1 (stereo not drawn) [Compound 12, 1-[(2-Methyl-1-phenylcarbonyloxypropoxy)carbonylamino]cyclopropanecarboxylic Acid]		substantial	
O=C(Cc1ccccc1)OCCOC(=O)NC1(C(=O)O)CC1	142.1 to 145.6		
Cc1ccccc1C(=O)OCCOC(=O)NC1(C(=O)O)CC1 [Compound 3, 1-{[(2-Methylphenylcarbonyloxy)ethoxy]carbonylamino}cyclopropanecarboxylic Acid]		substantial	
O=C(NC1(C(=O)O)CC1)OCCOC(=O)C1CCCCC1 [Compound 10, 1-[(Cyclohexylcarbonyloxyethoxy)carbonylamino]cyclopropanecarboxylic Acid]	123.6 to 125.3		
NC1(C(=O)O)CC1 [1-aminocyclopropanecarboxylic acid, reference compound]			85900

Other lines, results leading:

melting point [°C]	colonic bioavailability of 1-aminocyclopropanecarboxylic acid [1]	AUC(0-inf) ([1]; rat, whole blood, intravenous, dosed at 20 mg-eq/kg, used as reference for bioavailability calculations, read-out: AUCinf for the intravenously administered α-amino acid) [ng·h/mL]	Compound
132.9 to 134.4			O=C(CCc1ccccc1)OCCOC(=O)NC1(C(=O)O)CC1 [Compound 17, 1-{[(3-Phenylpropanoyloxy)ethoxy]carbonylamino}cyclopropanecarboxylic Acid]
147.8 to 150.2	substantial		CC(C)C(OC(=O)/C=C/c1ccccc1)OC(=O)NC1(C(=O)O)CC1 (stereo not drawn) [Compound 18, 1-{[1-((2E)-3-Phenylprop-2-enoyloxy)-2-methylpropoxy]carbonylamino}cyclopropanecarboxylic Acid]
177.7 to 182.5			Cc1ccc(C(=O)OCCOC(=O)NC2(C(=O)O)CC2)cc1 [Compound 21, 1-{[(4-Methylphenylcarbonyloxy)ethoxy]carbonylamino}cyclopropanecarboxylic Acid]
171.8 to 173.6			COc1ccc(C(=O)OCCOC(=O)NC2(C(=O)O)CC2)cc1OC [Compound 14, 1-{[(3,4-Dimethoxyphenylcarbonyloxy)ethoxy]carbonylamino}cyclopropanecarboxylic Acid]
169.3 to 172.2	substantial		O=C(/C=C/c1ccccc1)OCCOC(=O)NC1(C(=O)O)CC1 [Compound 16, 1-{[((2E)-3-Phenylprop-2-enoyloxy)ethoxy]carbonylamino}cyclopropanecarboxylic Acid]
	substantial		CC(C)C(=O)OC(OC(=O)NC1(C(=O)[O-])CC1)C(C)C.[Na+] (stereo not drawn) [Compound 23, 1-{[2-Methyl-1-(2-methylpropanoyloxy)propoxy]carbonylamino}Sodium Cyclopropanoate]
